The species entered for assay [1] is Mus musculus. The experiment in a line: Antinociceptive activity determined in acetic acid induced mouse writhing test. It counts as functional. In general terms: Writhing tests count abdominal constrictions after an irritant is injected.
Assay [2] deals with Rattus norvegicus. The experiment in a line: Antagonist activity (administered subcutaneously) determined by rat tail flick test; Inactive at 10 mg/kg. It counts as functional, organism-based. More on the design: dose 10 mg/kg. On the technique in general: Thermal pain tests record how soon the animal reacts.
Assay [3] relates to Rattus norvegicus. Description: Agonist activity (administered subcutaneously) determined by rat tail flick test. The assay is classed as functional. As to conditions: sc.
The subject of assay [4] is Rattus norvegicus. The experiment in a line: Antagonist activity (administered subcutaneously) determined by rat tail flick test. It counts as functional. To be noted: sc.

The results in this text go back to ChEMBL document CHEMBL1121758, “(-)-4-Hydroxymorphinanones: their synthesis and analgesic activity” (1981).

Calls of active or inactive are those of the source. The calls are words filed in the database; no cut-off is given here.

As to `O=C1CCC2C3Cc4cccc(O)c4C2(CCN3CC2CC2)C1` (centres undefined), in assay [1], the 50% effective dose (ED50) (as a rule, the dose at which the effect has come halfway, by size or by number of responders) was 0.64 mg/kg. In addition, the ED50 entry in assay [2] is “inactive”.
Consider `CN1CC[C@]23c4c5ccc(O)c4O[C@H]2[C@@H](O)C=C[C@H]3[C@H]1C5.CN1CC[C@]23c4c5ccc(O)c4O[C@H]2[C@@H](O)C=C[C@H]3[C@H]1C5.O=S(=O)(O)O`, for which the 50% effective dose (ED50) in assay [3] amounted to 7.3 mg/kg; in assay [1], 0.8 mg/kg.
As for `C=CCN1CC[C@]23c4c5ccc(O)c4O[C@H]2[C@@H](O)C=C[C@H]3[C@H]1C5` [NALORPHINE], the ED50 in assay [1] worked out at 1.22 mg/kg; in assay [4] it was 0.86 mg/kg.
Regarding `O=C1CCC2C3Cc4cccc5c4C2(CCN3CC2CC2)C1O5` (centres undefined), the ED50 turned out to be 0.06 mg/kg in assay [1] and 12.5 mg/kg in assay [4].
Molecule `COc1cccc2c1C13CCN(C)C(C2)C1CCC(=O)C3` (centres undefined) came in with an ED50 in assay [1] of 0.21 mg/kg.
Regarding `CN1CCC23CC(=O)CCC2C1Cc1cccc(O)c13` (centres undefined), the values for the ED50 in assay [3] and in assay [1] were 19.2 mg/kg and 0.18 mg/kg, respectively.
Molecule `O=C1CCC2C3Cc4ccc(O)cc4C2(CCN3CC2CC2)C1` (centres undefined) displayed an ED50 in assay [4] of 2.3 mg/kg.
As for `CN1CCC23CC(=O)CCC2C1Cc1ccc(O)cc13` (centres undefined), the ED50 in assay [3] amounted to 20 mg/kg; in assay [1], 0.15 mg/kg.
